Key:
Experiment in all cases: Bliss excess, mean over the matrix (fraction); higher = more synergy
[1] = tested on: COLO-824 (Breast Carcinoma)
Summary of the method: (§1)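 Cell lines in DMEM/F12 or RPMI with 10% FBS were plated in 1536-well plates, held 24 hours at 37°C, 5% CO2, then given two-drug dose matrices for 72 hours (DMSO typically 0.2%). Viability was read by CellTiter-Glo 2.0 luminescence and scaled as inhibition from 0 (vehicle wells) to 1 (blank wells). Combination Emax is the second-highest inhibition in the matrix; Bliss excess is observed combination effect minus expected EA + EB − EA·EB, EA and EB being single-agent effects.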

[2] = tested on: NCI-H1581 (Non-Small Cell Lung Carcinoma)
Summary of the method: as §1

[3] = tested on: JSC-1 (B-Cell Non-Hodgkin's Lymphoma)
Summary of the method: as §1

IGR-37 (Melanoma) = tested on: IGR-37 (Melanoma)
Summary of the method: as §1

[4] = tested on: PANC-10-05 (Pancreatic Carcinoma)
Summary of the method: as §1

[5] = tested on: VCaP (Prostate Carcinoma)
Summary of the method: as §1

[6] = tested on: HCC1954 (Breast Carcinoma)
Summary of the method: as §1

LN-405 (Glioblastoma) = tested on: LN-405 (Glioblastoma)
Summary of the method: as §1

[7] = tested on: NCI-H64 (Small Cell Lung Carcinoma)
Summary of the method: as §1

[8] = tested on: A3-KAW (B-Cell Non-Hodgkin's Lymphoma)
Summary of the method: as §1

[9] = tested on: TT (Thyroid Gland Carcinoma)
Summary of the method: as §1

ARH-77 (Non-Cancerous) = tested on: ARH-77 (Non-Cancerous)
Summary of the method: as §1

GI-ME-N (Neuroblastoma) = tested on: GI-ME-N (Neuroblastoma)
Summary of the method: as §1

[10] = tested on: COR-L311 (Small Cell Lung Carcinoma)
Summary of the method: as §1

NY (Osteosarcoma) = tested on: NY (Osteosarcoma)
Summary of the method: as §1

A498 (Kidney Carcinoma) = tested on: A498 (Kidney Carcinoma)
Summary of the method: as §1

[11] = tested on: CAPAN-2 (Pancreatic Carcinoma)
Summary of the method: as §1

[12] = tested on: NCI-H1650 (Lung Adenocarcinoma)
Summary of the method: as §1

[13] = tested on: NCI-H1666 (Lung Adenocarcinoma)
Summary of the method: as §1

[14] = tested on: SK-MES-1 (Squamous Cell Lung Carcinoma)
Summary of the method: as §1

SMILES | Bliss excess [1] | Bliss excess [2] | Bliss excess [3] | Bliss excess (IGR-37 (Melanoma)) | Bliss excess [4] | Bliss excess [5] | Bliss excess [6] | Bliss excess (LN-405 (Glioblastoma)) | Bliss excess [7] | Bliss excess [8] | Bliss excess [9] | Bliss excess (ARH-77 (Non-Cancerous)) | Bliss excess (GI-ME-N (Neuroblastoma)) | Bliss excess [10] | Bliss excess (NY (Osteosarcoma)) | Bliss excess (A498 (Kidney Carcinoma)) | Bliss excess [11] | Bliss excess [12] | Bliss excess [13] | Bliss excess [14]
CN(CCO)CC[C@H](CSc1ccccc1)Nc1ccc(S(=O)(=O)NC(=O)c2ccc(N3CCC([C@@H](O)c4ccccc4-c4ccc(Cl)cc4)CC3)cc2)cc1S(=O)(=O)C(F)(F)F [AZD4320] + CCN(CCO)CCCOc1ccc2c(Nc3cc(CC(=O)Nc4cccc(F)c4)[nH]n3)ncnc2c1 [AZD2811] (first compound max 1 µM, 7x7, partner max 1 µM) | 0.0272 | 0.0584 | 0.0215 | -0.0204 | -0.0758 | 0.0003 | 0.149 | 0.014 | 0.158 | 0.0628 | 0.0345 | 0.0992 | -0.057 | 0.0249 | -0.0182 | -0.0371 | 0.0013 | -0.0164 | -0.0283 | -0.0328
Cc1c2c(nn1C)CSCc1cc(n(C)n1)CSc1cc(c3ccccc3c1)OCCCc1c(C(=O)O)n(C)c3c-2c(Cl)ccc13 [AZD5991] + C[C@@H]1COCCN1C2=NC(=NC(=C2)C3(CC3)[S@](=N)(=O)C)C4=C5C=CNC5=NC=C4 [AZD6738] (first compound max 1 µM, 7x7, partner max 10 µM) | -0.009 | -0.0036 | 0.018 | 0.124 | 0.0415 | 0.0348 | 0.0518 | 0.0493 | 0.0193 | 0.0161 | -0.0066 | -0.014 | 0.0481 | 0.0018 | 0.0486 | 0.107 | 0.0543 | 0.0392 | 0.0156 | -0.0119
Cn1cnc2c(F)c(Nc3ccc(Br)cc3Cl)c(C(=O)NOCCO)cc21 [Selumetinib] + C[C@@H]1COCCN1C2=NC(=NC(=C2)C3(CC3)[S@](=N)(=O)C)C4=C5C=CNC5=NC=C4 [AZD6738] (first compound max 10 µM, 7x7, partner max 10 µM) | -0.0111 | -0.0025 | 0.0244 | -0.0122 | -0.07 | -0.0602 | -0.0327 | -0.0448 | -0.0464 | 0.061 | -0.0154 | 0.029 | -0.0028 | -0.056 | 0.0613 | -0.023 | 0.0596 | -0.0315 | -0.0124 | -0.025
C[C@@H](c1ccc2nccn2c1)n1nnc2ncc(-c3cnn(C)c3)nc21 [Savolitinib] + CC1(C)CCC(CN2CCN(c3ccc(C(=O)NS(=O)(=O)c4ccc(NCC5CCOCC5)c([N+](=O)[O-])c4)c(Oc4cnc5[nH]ccc5c4)c3)CC2)=C(c2ccc(Cl)cc2)C1 [Venetoclax] (first compound max 1 µM, 7x7, partner max 1 µM) | -0.0178 | -0.0697 | -0.0638 | -0.0519 | -0.0986 | -0.0325 | -0.0189 | -0.0464 | 0.0032 | -0.023 | -0.0724 | -0.0092 | -0.0925 | -0.022 | -0.0147 | -0.0973 | -0.0682 | -0.0716 | -0.0595 | -0.0505
CCc1c2c(nc3ccc(O)cc13)-c1cc3c(c(=O)n1C2)COC(=O)[C@]3(O)CC [SN-38] + CN(C)CCCOc1ccc(-c2ccc3ncc4c(c3c2)n(C2CCOCC2)c(=O)n4C)cn1 [AZD0156] (first compound max 0.3 µM, 7x7, partner max 1 µM) | 0.0473 | 0.016 | -0.0046 | -0.0327 | -0.0858 | -0.018 | 0.035 | -0.0028 | -0.0365 | 0.0988 | -0.119 | 0.0037 | -0.0089 | -0.152 | -0.0288 | -0.0444 | -0.0468 | -0.0079 | 0.0313 | -0.0272
CC1(C)CCC(CN2CCN(c3ccc(C(=O)NS(=O)(=O)c4ccc(NCC5CCOCC5)c([N+](=O)[O-])c4)c(Oc4cnc5[nH]ccc5c4)c3)CC2)=C(c2ccc(Cl)cc2)C1 [Venetoclax] + CN(C)CCCOc1ccc(-c2ccc3ncc4c(c3c2)n(C2CCOCC2)c(=O)n4C)cn1 [AZD0156] (first compound max 1 µM, 7x7, partner max 1 µM) | 0.0588 | 0.0054 | 0.0102 | -0.0039 | -0.079 | 0.032 | 0.0044 | -0.0256 | -0.0149 | -0.0485 | -0.13 | 0.0357 | -0.041 | 0.0654 | -0.0939 | -0.029 | -0.0191 | -0.0361 | -0.0085 | -0.0106
Cc1cc2ncnn2cc1Nc1ncc2c(n1)n(C1CCOCC1)c(=O)n2C [AZD7648] + C[C@@H]1COCCN1C2=NC(=NC(=C2)C3(CC3)[S@](=N)(=O)C)C4=C5C=CNC5=NC=C4 [AZD6738] (first compound max 10 µM, 7x7, partner max 10 µM) | 0.0794 | 0.0217 | 0.0038 | -0.0228 | 0.0487 | 0.0437 | 0.0568 | -0.0881 | -0.0003 | -0.034 | 0.0666 | -0.0463 | 0.0346 | -0.016 | -0.0052 | 0.0313 | 0.022 | 0.0308 | 0.0034 | -0.0084
CC(=O)c1c(C)c2cnc(Nc3ccc(N4CCNCC4)cn3)nc2n(C2CCCC2)c1=O [Palbociclib] + Cn1cnc2c(F)c(Nc3ccc(Br)cc3Cl)c(C(=O)NOCCO)cc21 [Selumetinib] (first compound max 10 µM, 7x7, partner max 10 µM) | -0.0652 | 0.0466 | 0.0842 | 0.0324 | -0.0409 | -0.012 | -0.0152 | -0.0566 | -0.014 | 0.182 | 0.0418 | -0.0147 | -0.0012 | -0.0334 | -0.0227 | -0.0228 | -0.0199 | -0.0775 | -0.0183 | -0.0088
CS(=O)(=O)CCNCc1ccc(-c2ccc3ncnc(Nc4ccc(OCc5cccc(F)c5)c(Cl)c4)c3c2)o1 [Lapatinib] + C[C@@H](Oc1cc(-c2cnn(C3CCNCC3)c2)cnc1N)c1c(Cl)ccc(F)c1Cl [Crizotinib] (first compound max 10 µM, 7x7, partner max 10 µM) | 0.002 | 0.0208 | -0.0008 | -0.0432 | -0.109 | -0.0653 | 0.0048 | -0.0158 | -0.0564 | 0.0316 | -0.002 | -0.0445 | -0.0505 | -0.0024 | -0.0118 | -0.0592 | -0.0341 | 0.0253 | -0.0698 | -0.0288
CC1(C)CCC(CN2CCN(c3ccc(C(=O)NS(=O)(=O)c4ccc(NCC5CCOCC5)c([N+](=O)[O-])c4)c(Oc4cnc5[nH]ccc5c4)c3)CC2)=C(c2ccc(Cl)cc2)C1 [Venetoclax] + CCN(CCO)CCCOc1ccc2c(Nc3cc(CC(=O)Nc4cccc(F)c4)[nH]n3)ncnc2c1 [AZD2811] (first compound max 1 µM, 7x7, partner max 1 µM) | 0.0087 | -0.0024 | 0.0485 | -0.011 | -0.0454 | 0.0436 | 0.0579 | 0.0185 | 0.173 | -0.0238 | -0.0834 | 0.198 | -0.0202 | 0.0261 | -0.0304 | -0.0503 | -0.0114 | 0.0046 | 0.0171 | -0.0139
CCN(CCO)CCCOc1ccc2c(Nc3cc(CC(=O)Nc4cccc(F)c4)[nH]n3)ncnc2c1 [AZD2811] + C[C@@H]1COCCN1C2=NC(=NC(=C2)C3(CC3)[S@](=N)(=O)C)C4=C5C=CNC5=NC=C4 [AZD6738] (first compound max 1 µM, 7x7, partner max 10 µM) | -0.0843 | -0.0438 | -0.0495 | -0.0366 | -0.0793 | -0.0864 | -0.0263 | -0.0386 | -0.075 | -0.0417 | -0.0905 | 0.0254 | -0.0437 | -0.0642 | -0.0508 | -0.0832 | -0.0412 | -0.0801 | -0.0633 | -0.0484
CN(C)CCCOc1ccc(-c2ccc3ncc4c(c3c2)n(C2CCOCC2)c(=O)n4C)cn1 [AZD0156] + O=C(c1cc(Cc2n[nH]c(=O)c3ccccc23)ccc1F)N1CCN(C(=O)C2CC2)CC1 [Olaparib] (first compound max 3 µM, partner max 3 µM) | 0.0729 | 0.0465 | 0.171 | -0.0103 | 0.0378 | 0.0063 | 0.0066 | -0.0375 | -0.0106 | 0.276 | -0.0297 | 0.0648 | -0.0116 | 0.092 | -0.0279 | 0.047 | -0.0535 | -0.0462 | 0.0049 | -0.0199
C=CCn1c(=O)c2cnc(Nc3ccc(N4CCN(C)CC4)cc3)nc2n1-c1cccc(C(C)(C)O)n1 [AZD1775] + C1CN(CCC1(C(=O)N[C@@H](CCO)C2=CC=C(C=C2)Cl)N)C3=NC=NC4=C3C=CN4 [Capivasertib] (first compound max 3 µM, partner max 3 µM) | -0.0289 | 0.0271 | -0.0146 | -0.0316 | -0.102 | -0.061 | 0.002 | -0.0436 | 0.0202 | 0.0032 | -0.0079 | 0.018 | -0.0726 | -0.0057 | -0.0746 | -0.0315 | -0.0949 | -0.0473 | -0.0773 | 0.04
COc1cc2c(cc1OCCCCCOc1cc3c(cc1OC)C(=O)N1C=C(C)C[C@H]1C=N3)N=C[C@@H]1CC(C)=CN1C2=O [SG3199] + O=C(c1cc(Cc2n[nH]c(=O)c3ccccc23)ccc1F)N1CCN(C(=O)C2CC2)CC1 [Olaparib] (first compound max 0.001 µM, 7x7, partner max 10 µM) | -0.03 | -0.0322 | -0.0344 | -0.0238 | -0.0598 | -0.0455 | -0.0356 | 0.0323 | -0.0539 | -0.0286 | -0.0645 | -0.0466 | -0.036 | 0.0282 | -0.0456 | -0.0336 | -0.0506 | -0.0575 | -0.0477 | -0.0267

From the supplement of paper PMC11061612
